The subject of experiment [1] is methionine 14-3-3γ. The experiment can be described thus: IEF-immunoblotting for induction of methionine 14-3-3γ in H1299 cells. The experiment is classed as cell-based, human. Here is the method:
(§1) H1299, a non-small cell lung carcinoma which is obtained from the American Type Culture Collection (Rockville, Md.), is cultivated in PRMI1640 supplemented with 10% fetal calf serum and glutamine, penicillin, streptomycin, and gentamycin. The H1299 cells are grown to about 70% confluenc and then cultivated with or without 25 μM bengamide. Samples of the cells are taken at 8, 16, 24 and 48 hours. At the end of the culture periods, the sample cells are washed with PBS (phosphate buffered solution, available from Sigma Chemical) and collected by scraping and centrifugation. The cell pellet is dissolved in 4 volumes of Rabilloud buffer. Rabilloud buffer contained 4% non-ionic detergent CHAPS, 7 M urea, 2 M thiourea, 10 mg/ml dithiothreitol and 1% pharmalytes (pH 3-10), which buffer is disclosed in Electrophoresis, 1997 Mar-Apr., 18 (3-4): 307-16, Rabilloud et al., Improvement of the Solubilization of Proteins in Two-dimensional electrophoresis with immobilized pH Gradients. The cell concentration was between 2 and 2.5 E7/ml.
(§2) Immobilized pH-gradient (IPG) gels (Immobiline®, Amersham Pharmacia Biotech) are re-swollen for at least 4 hours in Rabilloud buffer without pharmalytes. Samples (1 μl of cell extract) are directly loaded at a distance of about 2 cm from the anode to the surface of the gel using a comb. Focusing is carried out at 200 V for 2 hours and at 1000 or 3500 V until a 25000 Vh is reached. The temperature is maintained at 15° C. After focusing, the gel is fixed in 12% TCA-3.5% sulfosalicylic acid for 1 hour and washed in water for 1 hour. The washed gel is blotted by placing the gel on a flat surface and covering with a sheet of PVDF-membrane which was sequentially soaked in Isopropanol, water and a guanidinium chloride solution of […] Tris-HCl at pH 7.5, 4 M guanidinium chloride, 1 mg/ml DTT. The membrane is covered with 4 layers of filter paper sheets which was soaked with the guanidinium chloride solution. A polyethylene film is placed over the filter sheets and a 3 kg weight having a 14 cm by 14 cm flat surface is placed over the polyethylene film to ensure a good contact between the layers. The gel layers are undisturbed to allow transfer for overnight, then the membrane is washed with water and treated with a solution of 0.5% formaldehyde in PBS for 30 minutes. The membrane is incubated with 2% glycine in PBS at pH 7 for 30 minutes.
The membrane is then blocked with 0.05% Tween 20-1% skimmed dry milk powder in PBS for 1 hour. Commercially available antibodies against 14-3-3 (Santa Cruz) are applied for 4 hours in blocking buffer. Chemiluminescence detection (ECL-kit, Amersham Pharmacia Biotech) is carried out using the secondary antibodies supplied with the kit.

Experiment [2] has as its system methionine 14-3-3γ. The experiment can be described thus: IEF-immunoblotting for induction of methionine 14-3-3γ in U20S (osteosarcoma) cells. The experiment is classed as cell-based, human. To be noted: for expression of the altered 14-3-3γ isoform: U20S cells treated with the compound (summary statement, no concentration given). Here is the method:
[The procedure below names another cell line; the source says it served here with some conditions changed.] as §1
as §2, with “A polyethylene film is placed over the filter sheets and a 3 kg weight having a 14 cm by 14 cm flat surface is placed over the polyethylene film to ensure a good contact between the layers. The gel layers are undisturbed to allow transfer for overnight, then the membrane is washed with water and treated with a solution of 0.5% formaldehyde in PBS for 30 minutes. The membrane is incubated with 2% glycine in PBS at pH 7 for 30 minutes.” left out
(In general: Immunoblotting shows a protein as a band on a membrane.)

In experiment [3] the test system is methionine 14-3-3γ. Description: IEF-immunoblotting for induction of methionine 14-3-3γ in MDA-MB435 (mammary carcinoma) cells. The experiment is classed as cell-based, human. Conditions: 200 nM LAF389, within 18 hours. Here is the method: [The procedure below names another cell line; the source says it served here with some conditions changed.] as §1
(§3) Immobilized pH-gradient (IPG) gels (Immobiline®, Amersham Pharmacia Biotech) are re-swollen for at least 4 hours in Rabilloud buffer without pharmalytes. Samples (1 μl of cell extract) are directly loaded at a distance of about 2 cm from the anode to the surface of the gel using a comb. […]

Experiment [4] relates to methionine 14-3-3γ. The experiment can be described thus: IEF-immunoblotting of white blood cell fraction from treated rats for methionine 14-3-3γ. The experiment is classed as in vivo. Conditions: 3 mg/kg three times for a day, rested 7 days, dosed three times again, blood collected after one day rest. Here is the method: One group of laboratory rats is treated with the bengamide analogue LAF389 of Example 2 three times for a day at the 3 mg/kg dosage, then rested for 7 days. Th rats are again dosed three times the following day with the dosage. They are rested for one day and blood samples are collected. Peripheral blood is collected by a percoll gradient centrifugation protocol. The white blood cell fraction including platelets is recovered and the pellet is lysed in IEF sample buffer. The bio-samples are analyzed with the IEF-immunoblotting analysis. Control bio-samples are obtained from a group of rats that are not treated with the bengamide analogue.

The test system of experiment [5] is methionine 14-3-3γ. The experiment can be described thus: IEF-immunoblotting for induction of methionine 14-3-3γ in A549 (lung carcinoma) cells. The experiment is classed as cell-based, human. To be noted: 200 nM LAF389, within 18 hours. The method, then:
[The procedure below names another cell line; the source says it served here with some conditions changed.] as §1, §3

Regarding `CO[C@@H]1[C@H](OC(=O)NC(=O)CCl)CC[C@]2(CO2)[C@H]1[C@@]1(C)O[C@@H]1CC=C(C)C` [AGM-1470], the “induction of methionine 14-3-3γ (IEF-immunoblotting)” value in experiment [1] (AGM-1470 in place of bengamide) is on record as “induce methionine 14-3-3γ”.

bengamide: the “induction/accumulation of methionine 14-3-3γ (IEF-immunoblotting)” value in experiment [1] (25 μM bengamide, samples at 8, 16, 24 and 48 hours) is “gradually accumulate over the 48 hour culture period the protein that reacts with the 14-3-3γ specific antibody”. The “expression of the altered 14-3-3γ isoform” value in experiment [2] was “express the altered 14-3-3γ isoform”.

On to `CO[C@@H]1[C@H](OC(=O)/C=C/C=C/C=C/C=C/C(=O)O)CC[C@]2(CO2)[C@H]1[C@@]1(C)O[C@@H]1CC=C(C)C` [fumagillin], for which the “expression of the altered 14-3-3γ isoform” value in experiment [2] is on record as “express the altered 14-3-3γ isoform”.

For the compound `COC(C(=O)NC1CCC(OC(=O)C2CCCCC2)CNC1=O)C(O)C(O)C(O)/C=C/C(C)(C)C` (stereo not shown) [LAF389], the “induction of methionine 14-3-3γ (IEF-immunoblotting)” value in experiment [3] was “induce methionine 14-3-3γ within 18 hours”; in experiment [1] (18 hours, LAF389 200 nM, 5-fluorouracil 20 μg/ml, epothilone 500 nM, doxorubicin 1 μg/ml, stauosporin 1 μM), “induced methionine 14-3-3γ”; in experiment [5], “induce methionine 14-3-3γ within 18 hours”; in experiment [2] (U20S cells, 200 nM LAF389, within 18 hours), “induce methionine 14-3-3γ within 18 hours”. Also, the “induction and accumulation of methionine 14-3-3γ in white blood cell fraction” value in experiment [4] was “induce and accumulate methionine 14-3-3γ”. For the same compound, in experiment [1] (200 nM LAF389, samples at 8, 16, 24 and 48 hours), the “induction/accumulation of methionine 14-3-3γ (IEF-immunoblotting)” value was “induce and accumulate the protein which is reactive to the 14-3-3γ antibody”.

The values are drawn from patent US20040048318A1, “Method for screening anti-proliferative compounds and method for inhibiting tumor growth” (priority 2003, published 2004).
